Patent US20210382068A1, “HLA SINGLE ALLELE LINES” (priority 2018, published 2021)

Experiments:
[1] = tested on: advanced hormone refractory prostate cancer patients; conditions: cited from earlier work
[2] = tested on: ovarian carcinoma patients; conditions: cited from earlier work
[3] = more than 25 clinical trials; cited from earlier work
healthy human volunteers = conditions: 8 subjects with one single s.c. administration versus 4 subjects receiving placebo; cited from earlier work
[4] = tested on: patient tumor cell lines (MEL, GBM, ccRCC); assay: IFNγ stimulation of patient tumor cell lines, HLA-bound peptides by IP/MS; format: cell-based, human; conditions: IFNγ-matched samples, 2000 Unit/ml IFNg for 3 days

Molecule: C[C@]12CC[C@@H]3c4ccc(OC(=O)N(CCCl)CCCl)cc4CC[C@H]3[C@@H]1CC[C@@H]2O [estramustine]
- patients with >50% decrease in serum prostate specific antigen (PSA) [1]: 54%

Molecule: Polyinosinic-Polycytidylic Acid-poly-L-lysine Carboxymethylcellulose [poly-ICLC]
- generation of NY-ESO-1-specific CD4+ and CD8+ T-cell and antibody responses ([2]; 1.4 mg poly-ICLC and Montanide added, compared to OLP alone or OLP and Montanide): markedly enhanced
- patients showing induction of CD4+ and CD8+ T cell, as well as antibody responses to the peptide ([2]; poly-ICLC in combination with NY-ESO-1 peptide vaccine, in addition to Montanide, phase 1): > 90%
- toxicity profile [3]: relatively benign toxicity profile
- differential expression of genes versus placebo (healthy human volunteers): up to 212 genes

B1: IFNγ: interferon gamma (Peprotech) used to stimulate cultured tumor cells (protein, UniProt P01579 24-161, looked up)
Interferon gamma: QDPYVKEAENLKKYFNAGHSDVADNGTLFLGILKNWKEESDRKIMQSQIVSFYFKLFKNFKDDQSIQKSVETIKEDMNVKFFNSNKKKRDDFEKLTNYSVTDLNVQRKAIHELIQVMAELSPAAKTGKRKRSQMLFRG
- increase in peptides derived from IFNγ-response genes post stimulation [4]: 2.4-5.6%
